Entries after “also recorded” stand apart in the source; their conditions may differ.
How the values were obtained:
Uch-L3 = molecular target: T1, Uch-L3 (Homo sapiens, UniProt P15374); experiment: Nedd8-AMC hydrolysis by Uch-L3; assay type: biochemical; conditions: 5 μM LDN, 20 nM Uch-L3, Nedd8-AMC 400 nM
T1 sequence (P15374 1-230): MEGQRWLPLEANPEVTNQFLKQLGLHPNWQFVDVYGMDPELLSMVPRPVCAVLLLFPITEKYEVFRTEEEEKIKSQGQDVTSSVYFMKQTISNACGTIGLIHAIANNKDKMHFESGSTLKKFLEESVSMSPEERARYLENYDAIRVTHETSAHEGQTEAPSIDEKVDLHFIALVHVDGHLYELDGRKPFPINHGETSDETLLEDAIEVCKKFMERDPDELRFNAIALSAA
Experimental: Measurement of Hydrolase Activity: The hydrolase assay was performed as previously described (Nishikawa et al., 2003) with slight modifications. Briefly, hippocampal tissue was treated with tissue protein extraction reagent (T-PER; Pierce) containing freshly added EDTA-free protease inhibitors. Homogenate was centrifuged at 10,000 rpm for 5 min. Protein concentration was measured in the supernatant using the BCA protein assay reagent. In some experiments hydrolysis was initiated by adding 10 μl of 20 nM Uch-L1 or Uch-L3 (Boston Biochem). The hydrolase assay was performed using fluorogenic ubiquitin-7-amino-4-methylcoumarin (ubiquitin-AMC) (Boston Biochem) as a substrate. The substrate was diluted in assay buffer (50 mM Tris-HCL, 0.5 mM EDTA, 5 mM dithiothreitol and 0.1 mg/ml ovalbumin, pH 7.6). […] The reaction was monitored using a fluorescence spectrophotometer (CytoFluor Series 4000, ABI Inc) at 25° C. The free AMC fluorophore was excited at 380 nm and measured at 460 nm. Hydrolase activity was expressed as relative fluorescence intensity/min (Dang et al., 1998). In some experiments, hydrolysis was also measured on the soluble and insoluble fractions (FIG. 28D). In a group of experiments hydrolysis was measured by mixing ubiquitin-AMC with 20 nM TAT fusion proteins (FIG. 27C). […]

Uch-L1 [1] = molecular target: T2, Uch-L1 (Mus musculus, UniProt Q9R0P9); experiment: Hydrolase (ubiquitin-AMC) assay on hippocampal slices; assay type: cell-based
T2 construct: hippocampal tissue was treated with tissue protein extraction reagent; from tissue; host or cells: mouse hippocampal slices (C57/BL6 or APP/PS1 and WT littermates)
T2 sequence (Q9R0P9 1-220): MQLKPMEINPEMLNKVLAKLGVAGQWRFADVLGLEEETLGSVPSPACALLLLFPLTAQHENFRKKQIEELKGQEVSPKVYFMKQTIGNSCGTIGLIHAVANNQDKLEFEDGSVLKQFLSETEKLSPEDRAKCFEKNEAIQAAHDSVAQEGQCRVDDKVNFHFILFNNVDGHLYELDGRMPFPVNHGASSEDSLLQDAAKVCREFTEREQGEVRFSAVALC
Experimental: (§1) Slice preparation. Mice were decapitated and their hippocampi removed. […] Slices were permitted to recover from cutting for at least 90 min. before recordings. For experiments with lactacystin, slices were perfused with the drug or vehicle for 2 to 4 hrs in a small volume (10 ml) chamber.
(§2) Briefly, hippocampal tissue was treated with tissue protein extraction reagent (T-PER; Pierce) containing freshly added EDTA-free protease inhibitors. Homogenate was centrifuged at 10,000 rpm for 5 min. Protein concentration was measured in the supernatant using the BCA protein assay reagent. In some experiments hydrolysis was initiated by adding 10 μl of 20 nM Uch-L1 or Uch-L3 (Boston Biochem). The hydrolase assay was performed using fluorogenic ubiquitin-7-amino-4-methylcoumarin (ubiquitin-AMC) (Boston Biochem) as a substrate. The substrate was diluted in assay buffer (50 mM Tris-HCL, 0.5 mM EDTA, 5 mM dithiothreitol and 0.1 mg/ml ovalbumin, pH 7.6). Each reaction mixture containing 400 nM substrate and 100 μg enzyme sample was incubated for 5 min at room temperature. The reaction was monitored using a fluorescence spectrophotometer (CytoFluor Series 4000, ABI Inc) at 25° C. The free AMC fluorophore was excited at 380 nm and measured at 460 nm. […] In some experiments, hydrolysis was also measured on the soluble and insoluble fractions (FIG. 28D). In a group of experiments hydrolysis was measured by mixing ubiquitin-AMC with 20 nM TAT fusion proteins (FIG. 27C). In other experiments the substrate was Nedd8-AMC (Boston Biochem).

Uch-L1 [2] = molecular target: T2, Uch-L1; experiment: Hydrolase (ubiquitin-AMC) assay on hippocampi of injected mice; assay type: in vivo
Experimental: (§3) Measurement of Hydrolase Activity: The hydrolase assay was performed as previously described (Nishikawa et al., 2003) with slight modifications. Briefly, hippocampal tissue was treated with tissue protein extraction reagent (T-PER; Pierce) containing freshly added EDTA-free protease inhibitors. Homogenate was centrifuged at 10,000 rpm for 5 min. Protein concentration was measured in the supernatant using the BCA protein assay reagent. In some experiments hydrolysis was initiated by adding 10 μl of 20 nM Uch-L1 or Uch-L3 (Boston Biochem). The hydrolase assay was performed using fluorogenic ubiquitin-7-amino-4-methylcoumarin (ubiquitin-AMC) (Boston Biochem) as a substrate. The substrate was diluted in assay buffer (50 mM Tris-HCL, 0.5 mM EDTA, 5 mM dithiothreitol and 0.1 mg/ml ovalbumin, pH 7.6). Each reaction mixture containing 400 nM substrate and 100 μg enzyme sample was incubated for 5 min at room temperature. The reaction was monitored using a fluorescence spectrophotometer (CytoFluor Series 4000, ABI Inc) at 25° C. The free AMC fluorophore was excited at 380 nm and measured at 460 nm. Hydrolase activity was expressed as relative fluorescence intensity/min (Dang et al., 1998). In some experiments, hydrolysis was also measured on the soluble and insoluble fractions (FIG. 28D). In a group of experiments hydrolysis was measured by mixing ubiquitin-AMC with 20 nM TAT fusion proteins (FIG. 27C). In other experiments the substrate was Nedd8-AMC (Boston Biochem). LDN-57444 was purchased from Calbiochem.

Uch-L1 [3] = experiment: Hydrolase (ubiquitin-AMC) assay on hippocampal slices; assay type: cell-based, mouse
Experimental: as §1, §2

Uch-L1 [4] = experiment: Hydrolase (ubiquitin-AMC) assay on hippocampi of injected mice; assay type: in vivo, mouse; conditions: 0.02-0.04 g/kg, i.p.
Experimental: as §3

[5] = Native gel dimer formation; assay type: physicochemical
[6] = 0.4 mg/kg, sacrificed 4 hrs after injection

CC(=O)O/N=C1\C(=O)N(Cc2cc(Cl)ccc2Cl)c2ccc(Cl)cc21 [LDN-57444, reference compound]
Uch-L3 hydrolase activity (Nedd8-AMC hydrolysis) (Uch-L3): does not affect Uch-L3 hydrolase activity
Uch-L3 hydrolase activity (Nedd8-AMC hydrolysis) (Uch-L3; listed as LDN): no reduction in hydrolysis of Nedd8-AMC
reduction of enzymatic activity (Uch-L1 [1]; 1 μM LDN): 20%
reduction of enzymatic activity (Uch-L1 [1]; 2.7 μM LDN, 2-4 hour perfusion): ~40%
inhibition of enzymatic activity (Uch-L1 [1]; 5 μM LDN, 15 minute perfusion): 20%
reduction of activity (Uch-L1 [1]; 5 μM LDN, 2 hour exposure): 70%
Maximal inhibition of Uch activity (Uch-L1 [1]; 5 μM LDN, one hour (60 min)): 70%
Uch activity in APP/PS1 slices (Uch-L1 [1]; 5 μM for 2 hrs): further reduced Uch activity
Ubiquitin-C-Terminal hydrolase activity (Uch-L1 [1]; 5 μM for 4 hrs): decreased
Uch-L1 hydrolase activity (Uch-L1 [1]; LDN-57444 perfusion (5 μM, 4 hrs)): less than 30 % of vehicle-treated controls
enzymatic activity (Uch-L1 [1]; WT and APP/PS1 slices, 5 μM LDN, 2 hours): ~70 % of values in vehicle treated WT slices
Ubiquitin-C-Terminal hydrolase activity in hippocampi (Uch-L1 [2]; [6]): decreased
Uch-L1 activity (Uch-L1 [2]; [6]): 65 % of vehicle injected controls
recovery of hydrolase activity (Uch-L1 [2]; single i.p. injection 0.4 mg/kg): ≤ 8 h
maximal inhibition of hydrolase activity (Uch-L1 [2]; single i.p. injection 0.4 mg/kg, 30 minutes post-injection): ~40 % of control

B1: TAT-HA-Uch-L1: fusion protein: 11-amino acid transduction domain of HIV-transactivator protein (TAT) fused with an HA tag and human Uch-L1 (protein)
chain: MQLKPMEINPEMLNKVLSRLGVAGQWRFVDVLGLEEESLGSVPAPACALLLLFPLTAQHENFRKKQIEELKGQEVSPKVYFMKQTIGNSCGTIGLIHAVANNQDKLGFEDGSVLKQFLSETEKMSPEDRAKCFEKNEAIQAAHDAVAQEGQCRVDDKVNFHFILFNNVDGHLYELDGRMPFPVNHGASSEDTLLKDAAKVCREFTEREQGEVRFSAVALCKAA
modifications: left off: small tags and cut ends
Uch activity (Uch-L1 [3]; 20 nM fusion protein 1 hr pre-incubation, 200 nM Aβ 20 min): normal monoubiquitin levels and Uch activity are maintained; also recorded: re-established normal ubiquitin-C-terminal hydrolase activity; also recorded: re-established normal Uch activity
ubiquitin-c-terminal hydrolase enzymatic activity (Uch-L1 [3]; 20 nM fusion protein 1 hr, then 200 nM Aβ plus fusion protein): 98.40±5.76 % of TAT-HA treated WT slices
enzymatic (Uch) activity (Uch-L1 [3]; fusion protein alone): slight increase
enzymatic activity (Uch-L1 [3]; fusion protein alone for 1 hr): 148.63±12.01 % of TAT-HA treated slices
Uch activity (Uch-L1 [3]; slices from 4 month APP/PS1 mice, 20 nM for 1 hr): Uch activity is restored
total Uch activity in APP/PS1 mice (Uch-L1 [4]): returned to control levels; also recorded: re-established normal total Uch activity
total Uch activity in WT mice (Uch-L1 [4]): increased above control level; also recorded: increased total Uch activity
dimer formation ([5]; 1 μM): no dimer formation was detected; also recorded: No dimers were detected
dimer formation ([5]; 5 μM): Dimers were seen at 5 μM; also recorded: A weak band corresponding to dimers and other oligomeric species was detected

Source: patent US7947279B2, “Peptide having hydrolase activity” (The Trustees of Columbia University in the City of New York, priority 2005, dated 2011)
